According to PMC8900659 (Nature chemical biology, 2021):

Tests used:
[1] = test system: NRAS mutant OCI-AML3 cells; assay: pERK Western blot; details: 4 h; Palm M 10 μM, ABD957 500 nM, PD901 10 nM
KRAS mutant NB-4 cells = assay: pERK Western blot; details: 4 h; Palm M 10 μM, ABD957 500 nM, PD901 10 nM
[2] = test system: wild type N-Ras palmitoylation; assay: MS-based dynamic palmitoylation profiling in NB-4 cells; assay type: cell-based, human
ABHD17-DKO cells = assay: pERK Western blot; assay type: cell-based, human; details: OCI-AML3 ABHD17-DKO, 4 h
serine hydrolases = assay: in situ MS-ABPP in OCI-AML3 cells, global selectivity; details: in situ 2 h; ABD957 500 nM, Palm M 10 μM, HDFP 20 μM
[3] = test system: dynamically palmitoylated proteins; assay: MS-based global dynamic palmitoylation profiling in OCI-AML3 cells; details: Palm M 10 μM, ABD957 500 nM, 1 h chase
ABHD17s = assay: in vitro MS-ABPP, OCI-AML3 proteome; assay type: biochemical, human; details: 1 and 10 μM, 30 min, particulate fraction
LYPLA1 = LYPLA1 (Homo sapiens, UniProt O75608); assay: in vitro MS-ABPP, OCI-AML3 proteome; assay type: biochemical; details: 1 and 10 μM, 30 min, particulate fraction
LYPLA2 = LYPLA2 (Homo sapiens, UniProt O95372); assay: in vitro MS-ABPP, OCI-AML3 proteome; assay type: biochemical; details: 1 and 10 μM, 30 min, particulate fraction
ABHD17A/B/C = assay: targeted MS-ABPP in situ time-course in ONK cells; assay type: cell-based, human; details: 1 μM
ABHD10 = target: T1, ABHD10 (Homo sapiens, UniProt Q9NUJ1); assay: in vitro MS-ABPP, OCI-AML3 proteome; assay type: biochemical; details: 1 and 10 μM, 30 min, particulate fraction
T1 sequence (Q9NUJ1 53-306): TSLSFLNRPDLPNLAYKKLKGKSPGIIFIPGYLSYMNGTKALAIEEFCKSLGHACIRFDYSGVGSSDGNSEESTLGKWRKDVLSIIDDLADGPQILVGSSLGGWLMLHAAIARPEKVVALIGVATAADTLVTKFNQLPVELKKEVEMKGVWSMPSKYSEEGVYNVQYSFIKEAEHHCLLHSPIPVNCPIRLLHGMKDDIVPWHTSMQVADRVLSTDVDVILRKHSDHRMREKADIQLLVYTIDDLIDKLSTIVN

LYPLA1, sequence (O75608 whole entry): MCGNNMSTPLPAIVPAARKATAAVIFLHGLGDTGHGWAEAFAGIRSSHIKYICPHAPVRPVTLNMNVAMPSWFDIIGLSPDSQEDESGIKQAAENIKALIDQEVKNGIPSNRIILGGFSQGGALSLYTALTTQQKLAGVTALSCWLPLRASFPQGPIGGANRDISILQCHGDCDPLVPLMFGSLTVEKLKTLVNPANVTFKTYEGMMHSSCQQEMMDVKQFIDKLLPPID
LYPLA2, sequence (O95372 whole entry): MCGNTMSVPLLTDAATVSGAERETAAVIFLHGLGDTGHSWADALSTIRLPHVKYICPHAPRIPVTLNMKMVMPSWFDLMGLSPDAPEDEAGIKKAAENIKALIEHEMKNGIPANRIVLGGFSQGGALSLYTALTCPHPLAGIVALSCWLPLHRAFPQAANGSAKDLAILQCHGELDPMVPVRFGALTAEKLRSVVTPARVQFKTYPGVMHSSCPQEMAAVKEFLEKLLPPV

SMILES: O=C(NOC[C@H](O)CO)c1ccc(F)c(F)c1Nc1ccc(I)cc1F [PD901]
- ERK phosphorylation [1]: blocked ERK phosphorylation in both cell lines
- ERK phosphorylation (KRAS mutant NB-4 cells): blocked ERK phosphorylation in both cell lines

SMILES: CCCCCCCCCC[C@@H]1C(=O)O[C@H]1CCCCS(=O)(=O)CCCN(C)C [Palm M, Palmostatin M]
- sensitivity of dynamic palmitoylation of wild type N-Ras [2]: fully preserved
- ERK phosphorylation (ABHD17-DKO cells): maintained similar activity
- ERK phosphorylation [1]: substantially blocked
- ERK phosphorylation (KRAS mutant NB-4 cells): but not in KRAS mutant NB-4 cells
- global serine hydrolase selectivity in cells (serine hydrolases): widespread serine hydrolase inhibition
- stabilization of the 22 dynamically palmitoylated proteins [3]: most of these proteins were stabilized

SMILES: CN(C)S(=O)(=O)c1cnn(C(=O)N2CCN(Cc3ccc(Cl)cc3)CC2)c1 [compound 5]
- inhibition of ABHD17s (ABHD17s): confirmed inhibition
- inhibition of LYPLA1 (LYPLA1): inhibition
- inhibition of LYPLA2 (LYPLA2): inhibition

SMILES: C[C@H]1CN(Cc2ccc(C(F)(F)F)cc2N2CCOCC2)CCN1C(=O)n1ccc(S(=O)(=O)N(C)C)n1 [compound 8]
- sustained inhibition of ABHD17A/B/C over 72 h (ABHD17A/B/C): did not produce sustained inhibition
- ABHD10 as off-target (ABHD10): introducing ABHD10
